Literature values in patent US10568327B1, “Method of controlling phytopathogenic diseases on turfgrass” (Syngenta Crop Protection LLC, priority 2012, dated 2020).
Where two headings read alike, the source gives them in different places.

Test system: creeping bentgrass greens

CSC(=O)c1cccc2nnsc12 [acibenzolar-S-methyl, S-methyl benzo[1,2,3]thiadiazole-7-carbothioate]
Turf quality (6.1 grams/1,000 square meters, with reduced chlorothalonil rates, creeping bentgrass greens, Fry et al. 2006): below standard
Turf quality (with chlorothalonil at lower than recommended rate, creeping bentgrass putting greens, Zhang et al. 2005): unacceptable
